In PubChem BioAssay (NCI):
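Following 48 hours of exposure in 96-well plates, responses at five concentrations were used to interpolate endpoints linearly. TGI: total growth inhibition.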

Key:
Assay in all cases: DTP human tumour cell line panel, 48 h
LOX IMVI melanoma = tested on: LOX IMVI melanoma
RXF 393 renal = tested on: RXF 393 renal
SF-268 CNS = tested on: SF-268 CNS
DU-145 prostate = tested on: DU-145 prostate
HCC-2998 colon = tested on: HCC-2998 colon
SW-620 colon = tested on: SW-620 colon
SK-MEL-2 melanoma = tested on: SK-MEL-2 melanoma
T-47D breast = tested on: T-47D breast
SF-539 CNS = tested on: SF-539 CNS
MDA-N = tested on: MDA-N
NCI-H23 lung = tested on: NCI-H23 lung
SNB-19 CNS = tested on: SNB-19 CNS
SF-295 CNS = tested on: SF-295 CNS
SN12C renal = tested on: SN12C renal
SK-OV-3 ovarian = tested on: SK-OV-3 ovarian
COLO 205 colon = tested on: COLO 205 colon
OVCAR-5 ovarian = tested on: OVCAR-5 ovarian
HOP-62 NSCLC = tested on: HOP-62 NSCLC
ACHN renal = tested on: ACHN renal
PC-3 prostate = tested on: PC-3 prostate
UACC-257 melanoma = tested on: UACC-257 melanoma
M14 melanoma = tested on: M14 melanoma
UO-31 renal = tested on: UO-31 renal
UACC-62 melanoma = tested on: UACC-62 melanoma
BT-549 breast = tested on: BT-549 breast
A498 renal = tested on: A498 renal
CAKI-1 renal = tested on: CAKI-1 renal
U251 CNS = tested on: U251 CNS
MDA-MB-231 breast = tested on: MDA-MB-231 breast
KM12 colon = tested on: KM12 colon
CCRF-CEM leukemia = tested on: CCRF-CEM leukemia
HL-60(TB) leukemia = tested on: HL-60(TB) leukemia
SK-MEL-5 melanoma = tested on: SK-MEL-5 melanoma
IGROV1 ovarian = tested on: IGROV1 ovarian
HCT-15 colon = tested on: HCT-15 colon
HS 578T breast = tested on: HS 578T breast
786-0 renal = tested on: 786-0 renal
MOLT-4 leukemia = tested on: MOLT-4 leukemia
OVCAR-3 ovarian = tested on: OVCAR-3 ovarian
OVCAR-8 ovarian = tested on: OVCAR-8 ovarian
NCI-H522 lung = tested on: NCI-H522 lung
SNB-75 CNS = tested on: SNB-75 CNS
HOP-92 NSCLC = tested on: HOP-92 NSCLC
TK-10 renal = tested on: TK-10 renal
OVCAR-4 ovarian = tested on: OVCAR-4 ovarian
NCI-H460 lung = tested on: NCI-H460 lung
EKVX NSCLC = tested on: EKVX NSCLC
SR leukemia = tested on: SR leukemia
HCT-116 colon = tested on: HCT-116 colon
NCI-H226 lung = tested on: NCI-H226 lung
NCI/ADR-RES ovarian = tested on: NCI/ADR-RES ovarian
MCF7 breast = tested on: MCF7 breast
K-562 leukemia = tested on: K-562 leukemia
MDA-MB-435 = tested on: MDA-MB-435
HT29 colon = tested on: HT29 colon
SK-MEL-28 melanoma = tested on: SK-MEL-28 melanoma
MALME-3M melanoma = tested on: MALME-3M melanoma
RPMI-8226 leukemia = tested on: RPMI-8226 leukemia

Measured: TGI

CC(=O)c1ccc(N=NN2CCCC2)cc1
37.3 µM: A498 renal
not listed: HT29 colon | SK-MEL-28 melanoma | MALME-3M melanoma | RPMI-8226 leukemia
> 100 µM: all other assays above

O=C1CC(O)c2cscc21 (centres undefined)
45.8 µM: CCRF-CEM leukemia
not listed: SNB-19 CNS | M14 melanoma | UO-31 renal
> 100 µM: all other assays above
